What was measured:
NF-κB = NF-κB transcriptional activity in TNFα-induced HeLa cells; format: cell-based; conditions: Homo sapiens, 1 h pre-treatment, then 4 h of 20 ng/mL TNFα, average of three experiments, read-out: IC50, inhibition of NF-κB transcriptional activity
Experimental: The compounds were tested on HeLa (adenocarcinoma) cells to quantify their ability to inhibit NF-κB transcriptional activity. NF-κB activity was induced in HeLa cells by TNFα, and then the compounds were added to inhibit the induced NF-κB activity. Half maximal inhibitory concentrations (IC50) of several compounds, namely Compound 1, Compound 2 and Compound 12, were determined by dose response studies.
HeLa cells were plated in a 12-well plate (200,000 cells/well) and cultured in Eagle's Minimal Essential medium (EMEM) from Lonza supplemented with 10% heat-inactivated fetal bovine serum (Invitrogen) and 50 μg/mL penicillin/streptomycin (Invitrogen), and were left overnight to attach. Cells were pre-treated with serial diluted (started at 30 µM; 1:3 dilution) compounds for 1 h and then exposed to 20 ng/mL TNFα (Peprotech) for 4 h in serum free media. After the treatment, the cells were washed with PBS (Invitrogen), and lysed with RIPA buffer (Themo Scientific). The transcription activity of NF-κB in the cells was measured by Chemiluminescent Transcription Factor Assay kit (Thermo Scientific Catalog #89859), according to the manufacturer's instruction. Briefly, 1.5 mg/mL of RIPA lysed whole cell extract from each treatment were incubated in a 96-well plate bound with NF-κB biotinylated-consensus sequence. The active NF-κB transcription factor bound to the consensus sequence was incubated with NF-κB p65 primary antibody and then with a secondary HRP-conjugated antibody. A chemiluminescent substrate was added to the wells and the resulting signal was detected using a luminometer. Three separate experiments were analyzed for each concentration of the IC50 curves. XLFit model 205 was used to calculate IC50 curves.
Inhibition of NF-κB transcriptional activity was measured by serial dilutions of Compound 1, Compound 2 and Compound 12 after 1 h of compound pre-treatment followed by 4 h of 20 ng/mL TNFα exposure. Three independent experiments were scored for each concentration, with the average being presented here.

[1] = tested on: collagen-induced arthritis; experiment: Collagen-induced arthritis (CIA) Study No. 2 in Lewis rats; format: in vivo
Experimental: To further investigate the effect of the compounds described herein on inflammation biomarkers, a second CIA model was initiated. In this model, the groups were designated as group A (naïve), group B (model; vehicle-treated), group C (Compound 2 at 5 mg/kg QoD). The rats in groups B and C were immunized intradermally with bovine Type II collagen in IFA on day 0, and a booster injection was given on day 7. Compound 2 was orally administered to rats with CIA after the onset of arthritis (Day 11). CIA development was evaluated via macroscopic scoring and measurements of paw swelling. This was assessed every day for the first 5 days after sensitization (day 7), and then twice per week (Monday and Thursday) until Day 28 using the clinical scoring system described in Table 7 above. In addition, ELISAs for CD45, CRP, CCL2/MCP-1, TNF-α, IL1-β, IL-6, IL-17, and measurements for cathepsin K and elastase were performed 4 days (Day 15 of the study) and 10 days (Day 21 of the study—peak for the disease) after compound treatment and at the very end of the study (Day 28) on all group animals. Additionally, on the last day of the study (Day 28), a few representative animals from each group were subjected to three-dimensional micro-tomodensitometry of calcaneus, and bone erosion in the paws was quantified.
A LUMINEX® assay and ELISA were used to measure the effects of Compound 2 on the levels of pro-inflammatory cytokines and inflammation markers. Synovial fluid was collected on Day 21, after the first immunization, from 2 rats in the model group and 2 rats in the Compound 2-treated group, and at the end of the study from 2 rats in the naïve group, 3 rats in the model group and 3 rats in the Compound 2-treated group.
A LUMINEX® assay was also used to measure the levels of pro-inflammatory cytokines in serum. Serum samples (1 mL of blood per rat) were collected 4 days after compound treatment (Day 15), 10 days after compound treatment (usually at the disease peak—Day 21) and at the end of the study (Day 27).

Structure (SMILES) | IC50 (NF-κB) | clinical scores compared to vehicle-treated rats ([1]; 5 mg/kg QoD oral) | joint swelling compared to vehicle-treated rats ([1]; 5 mg/kg QoD oral) | bone erosion in the rear paws compared to vehicle-treated rats ([1]; 5 mg/kg QoD oral, Day 28) | IL-1β production in serum compared to the model group ([1]; 5 mg/kg QoD, Days 15, 21 and 27) | C-reactive protein (CRP) in synovial fluid compared to the model group ([1]; 5 mg/kg QoD, Days 21 and 27) | IL-1β in synovial fluid compared to the model group ([1]; 5 mg/kg QoD, Days 21 and 27) | IL-6 in synovial fluid compared to the model group ([1]; 5 mg/kg QoD, Days 21 and 27) | MCP-1 in synovial fluid compared to the model group ([1]; 5 mg/kg QoD, Days 21 and 27)
CC(C)(C)C(=O)NNC(=O)/C=C\n1cnc(-c2cc(C(F)(F)F)cc(C(F)(F)F)c2)n1 [Compound 1, (Z)-3-(3-(3,5-bis(trifluoromethyl)phenyl)-1H-1,2,4-triazol-1-yl)-N′-pivaloylacrylohydrazide] | 1590 nM |  |  |  |  |  |  |  | 
O=C(/C=C\n1cnc(-c2cc(C(F)(F)F)cc(C(F)(F)F)c2)n1)NNC(=O)CN1CCOCC1 [Compound 2, (Z)-3-(3-(3,5-bis(trifluoromethyl)phenyl)-1H-1,2,4-triazol-1-yl)-N′-(2-morpholinoacetyl)acrylohydrazide] | 1220 nM | significantly reduced | significantly reduced | significantly reduced bone erosion | inhibitory effect | inhibitory effects | inhibitory effects | inhibitory effects | inhibitory effects
